Source: patent US8134015B2, “Compound inhibiting in vivo phosphorous transport and medicine containing the same” (Kyowa Hakko Kirin Co., Ltd., priority 2003, dated 2012)
Counter-ions that a name gives are not always drawn.

Legend:
rat NaPi-2b = target: T1, rat NaPi-2b (Rattus norvegicus, UniProt Q9JJ09); assay: Sodium-dependent phosphate uptake of Xenopus oocytes which expressed NaPi-2b (32P); type: cell-based; conditions: for IC50: Xenopus oocytes expressing rat NaPi-2b, 32P radioactive phosphorus, read-out: IC50 (phosphate uptake inhibitory activity)
T1 construct: expressed in transfected cells; host or cells: Xenopus oocytes injected with cRNA
T1 sequence (Q9JJ09 1-695): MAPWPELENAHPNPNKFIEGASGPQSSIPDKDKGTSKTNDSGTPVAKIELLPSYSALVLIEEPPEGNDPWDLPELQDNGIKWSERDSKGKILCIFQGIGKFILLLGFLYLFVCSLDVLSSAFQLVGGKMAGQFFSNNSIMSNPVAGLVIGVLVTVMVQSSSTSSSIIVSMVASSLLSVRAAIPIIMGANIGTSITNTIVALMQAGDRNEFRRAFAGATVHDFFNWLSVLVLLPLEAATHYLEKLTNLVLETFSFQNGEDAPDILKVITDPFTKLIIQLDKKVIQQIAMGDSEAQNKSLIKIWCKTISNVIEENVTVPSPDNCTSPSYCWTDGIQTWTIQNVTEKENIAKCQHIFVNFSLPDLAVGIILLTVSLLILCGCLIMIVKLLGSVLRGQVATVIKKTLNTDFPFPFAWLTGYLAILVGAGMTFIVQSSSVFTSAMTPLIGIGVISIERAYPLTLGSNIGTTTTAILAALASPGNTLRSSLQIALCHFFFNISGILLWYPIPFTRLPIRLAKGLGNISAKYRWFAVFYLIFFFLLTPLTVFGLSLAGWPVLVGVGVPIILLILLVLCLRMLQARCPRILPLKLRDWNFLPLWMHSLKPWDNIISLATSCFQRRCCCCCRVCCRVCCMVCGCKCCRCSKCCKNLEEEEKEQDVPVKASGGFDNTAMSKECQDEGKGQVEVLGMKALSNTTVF
How it was run: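 Read-out is 32P phosphate uptake into Xenopus oocytes expressing rat intestinal NaPi-2b (cRNA injection, 2-day culture). Inhibition at 300 μM and 100 μM was derived from a single inhibition curve and given as percent.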

human NaPi-2a = target: T2, human NaPi-2a (Homo sapiens, UniProt Q06495); assay: Sodium-dependent phosphate uptake of Xenopus oocytes which expressed NaPi-2a (32P); type: cell-based; conditions: Xenopus oocytes expressing human NaPi-2a, FIG. 3, FIG. 4
T2 construct: expressed in transfected cells
T2 sequence (Q06495 1-639): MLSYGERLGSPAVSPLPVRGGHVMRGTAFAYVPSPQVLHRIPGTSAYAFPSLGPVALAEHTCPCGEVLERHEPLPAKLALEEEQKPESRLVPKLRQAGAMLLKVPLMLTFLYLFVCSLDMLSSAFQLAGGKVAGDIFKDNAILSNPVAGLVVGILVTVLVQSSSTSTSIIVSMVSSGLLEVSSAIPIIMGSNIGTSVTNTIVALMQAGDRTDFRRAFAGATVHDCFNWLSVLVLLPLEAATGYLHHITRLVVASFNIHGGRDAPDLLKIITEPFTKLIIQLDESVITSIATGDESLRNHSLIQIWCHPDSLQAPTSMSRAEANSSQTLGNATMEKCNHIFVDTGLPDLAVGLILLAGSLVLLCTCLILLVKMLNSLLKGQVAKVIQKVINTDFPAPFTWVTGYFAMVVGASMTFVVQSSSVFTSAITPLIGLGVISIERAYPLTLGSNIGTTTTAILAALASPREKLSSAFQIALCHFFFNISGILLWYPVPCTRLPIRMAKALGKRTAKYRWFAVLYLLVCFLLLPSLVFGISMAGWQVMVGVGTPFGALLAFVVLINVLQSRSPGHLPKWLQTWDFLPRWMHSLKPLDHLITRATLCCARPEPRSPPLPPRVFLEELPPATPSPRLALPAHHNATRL
Description: Experiment of Sodium-Dependent Phosphate Uptake of Xenopus oocytes which Expressed NaPi-2a
In the test, a group with the addition of choline chloride (Choline Cl) was used as a negative control for nonspecific uptake, and PFA (phosphonoformic acid) was used as a positive control for phosphate transport inhibition.

[1] = tested on: rabbit jejunal brush border membrane vesicles; assay: Nonspecific inhibitory activity against glucose absorption in rabbit jejunal brush border membrane vesicles (14C-glucose); type: biochemical; conditions: FIG. 2
Experimental: (§1) Jejunal epithelium was obtained from New Zealand white male rabbits (7 weeks old, obtained from KITAYAMA LABES Co., Ltd. (Japan)), and brush border membrane vesicles were isolated by the calcium precipitation method described in Kanako Katai et al., J. Biochem. 121, 50-55, 1997, and Peerce, B. E. et al., Biochemistry 26, 4272-4279, 1987. Thereafter, for compound 29 and compound 68, the phosphate uptake inhibitory activity was measured using the same samples with ^32P radioactive phosphorus (manufactured by Daiichi Kagaku Inc. (Japan)) by the rapid filtration method described in Kanako Katai et al., J. Biochem. 121, 50-55, 1997. […] Further, in the same experiment, nonspective inhibitory activity against glucose absorption was determined using 14C-glucose (manufactured by Moravek Biochemical Inc. (US)). […] In both the experiments, a group with the addition of potassium chloride was used as a negative control for nonspecific uptake. All the test results given below were expressed in terms of average value±standard error. Student's t-test was used for a significant test of the control group and the test compound group.

[2] = tested on: rabbit jejunal brush border membrane vesicles; assay: Sodium-dependent phosphate uptake of rabbit jejunal brush border membrane vesicles (32P, rapid filtration); type: biochemical; conditions: FIG. 1
Description: Pharmacological Test Example 2
Experiment of Sodium-Dependent Phosphate Uptake of Rabbit Jejunal Brush Border Membrane Vesicles
as §1

SD rats = assay: Inhibitory activity against 32P absorption from intestinal tract; type: in vivo; conditions: Rattus norvegicus, oral, read-out: Blood radioactivity inhibition, %
Experimental: Pharmacological Test Example 4
Inhibitory Activity Against ^32P Absorption from Intestinal Tract
SD rats (6 to 7 weeks old, obtained from Charles River Japan, Inc. (Japan)) were raised with low-phosphorus diet (phosphorus content 0.1%, manufactured by Oriental Yeast Co., Ltd. (Japan)) for 3 to 4 days and then fasted for about 24 hr for experiment. ^32P was diluted with purified water or liquid feed (CLEA JAPAN INC. (Japan)) to 0.7 to 3.5 MBq/ml and was forcibly orally administered at a dose of 5 ml/kg (administered into the gaster through an oral probe). The compounds or media were forcibly orally administered at a dose of 5 ml/kg (divided dose of twice), 30 min before the administration of ^32P and simultaneously with the administration of ^32P. Blood was collected from caudal artery 30 min, 45 min, or 60 min after ^32P administration, and blood ^32P radioactivity was measured with a liquid scintillation counter. Inhibition of an increase in blood radioactivity was used as a measure of inhibition of phosphate absorption from the intestinal tract.
The results are expressed in terms of the percentage inhibition determined by the following equation. (Blood radioactivity for group with the administration of medium−Blood radioactivity for group with the administration of compound)/(Blood radioactivity for group with the administration of medium)×100
t-Test was used for a significant test of the average value difference of blood radioactivity.

Compound	IC50 (rat NaPi-2b) [µM]	inhibition in vivo at 400 mg/kg (SD rats) [%]	further results
COc1ccc(C(=O)Nc2ccc(Br)cc2C(=O)N/N=C/c2cccc(F)c2)cc1OC [Compound 29, N-[4-Bromo-2-(3-fluoro-benzylidene-hydrazinocarbonyl)-phenyl]-3,4-dimethoxy-benzamide]	0.55		phosphate uptake inhibitory activity against NaPi-2b (rat NaPi-2b; Xenopus oocytes, FIG. 4): had inhibitory activity; phosphate uptake inhibitory activity against NaPi-2a (human NaPi-2a): had inhibitory activity; nonspecific inhibitory activity against glucose absorption [1]: did not have the inhibitory activity; phosphate uptake inhibitory activity [2]: concentration-dependent inhibitory activity
COc1ccc(C(=O)Nc2ccc(Cl)cc2C(=O)N/N=C/c2ccc(C)cc2)cc1OC [Compound 68, N-[4-Chloro-2-(4-methyl-benzylidene-hydrazinocarbonyl)-phenyl]-3,4-dimethoxy-benzamide]	0.36		nonspecific inhibitory activity against glucose absorption [1]: did not have the inhibitory activity; phosphate uptake inhibitory activity [2]: concentration-dependent inhibitory activity
COc1ccc(C(=O)Nc2ccc(Cl)cc2C(=O)N/N=C/c2ccc(Cl)c(C(F)(F)F)c2)cc1OC [Compound 88, N-[4-Chloro-2-(4-chloro-3-trifluoromethyl-benzylidene-hydrazinocarbonyl)-phenyl]-3,4-dimethoxy-benzamide]	0.22	29.1	
COc1ccc(C(=O)Nc2ccc(Br)cc2C(=O)N/N=C/c2ccc(C)c(C)c2)cc1OC [Compound 91, N-[4-Bromo-2-(3,4-dimethyl-benzylidene-hydrazinocarbonyl)-phenyl]-3,4-dimethoxy-benzamide]	0.22		inhibition in vivo at 320 mg/kg (SD rats): 28.3%
COc1ccc(C(=O)Nc2ccc(Cl)cc2C(=O)N/N=C/c2ccc(C)c(C)c2)cc1OC [Compound 92, N-[4-Chloro-2-(3,4-dimethyl-benzylidene-hydrazinocarbonyl)-phenyl]-3,4-dimethoxy-benzamide]	0.26		inhibition in vivo at 160 mg/kg (SD rats; dose 160 mg/kg): 25.5%
O=C(Nc1ccccc1C(=O)N/N=C/c1ccc(F)cc1)c1cccnc1 [Compound 130, N-[2-(4-Fluoro-benzylidene-hydrazinocarbonyl)-phenyl]-nicotinamide]	11.4		inhibition in vivo at 270 mg/kg (SD rats; dose 270 mg/kg): 22.8%
Cc1ccc(/C=N/NC(=O)c2ccccc2NC(=O)c2ccncc2)cc1C [Compound 163, N-[2-(3,4-Dimethyl-benzylidene-hydrazinocarbonyl)-phenyl]-isonicotinamide hydrochloride]	1.6		inhibition in vivo at 360 mg/kg (SD rats; dose 360 mg/kg): 57.8%
Cc1ccc(/C=N/NC(=O)c2ccccc2NC(=O)c2cccnc2)cc1C [Compound 165, N-[2-(3,4-Dimethyl-benzylidene-hydrazinocarbonyl)-phenyl]-nicotinamide hydrochloride]	2.43	27.6	
Cc1ccc(/C=N/NC(=O)c2cc(Br)ccc2NC(=O)c2cccnc2)cc1 [Compound 252, N-[4-Bromo-2-(4-methyl-benzylidene-hydrazinocarbonyl)-phenyl]-nicotinamide hydrochloride]	1.49	29.2	
Cc1ccc(/C=N/NC(=O)c2cc(Cl)ccc2NC(=O)c2cccc(CN3CCC(N4CCCCC4)CC3)c2)cc1C [Compound 372, 3-[1,4′]Bipiperidinyl-1′-ylmethyl-N-[4-chloro-2-(3,4-dimethyl-benzylidene-hydrazinocarbonyl)-phenyl]-benzamide]	0.8		inhibition in vivo at 100 mg/kg (SD rats): 63.7%

Continued by falling IC50 (rat NaPi-2b), values first:

IC50 (rat NaPi-2b) [µM]	Compound	inhibition in vivo at 400 mg/kg (SD rats) [%]	further results
9.02	COc1cccc(/C=N/NC(=O)c2cc(Br)ccc2NC(=O)c2ccc(CN3CCC(N4CCCCC4)CC3)cc2)c1 [Compound 315, 4-[1,4′]Bipiperidinyl-1′-ylmethyl-N-[4-bromo-2-(3-methoxy-benzylidene-hydrazinocarbonyl)-phenyl]-benzamide]		inhibition in vivo at 100 mg/kg (SD rats): 42.4%
7.19	O=C(Nc1ccc(Br)cc1C(=O)N/N=C/c1cccc(F)c1)c1cccs1 [Compound 157, Thiophene-2-carboxylic acid [4-bromo-2-(3-fluoro-benzylidene-hydrazinocarbonyl)-phenyl]-amide]		inhibition in vivo at 320 mg/kg (SD rats): 20.7%
4.76	Cc1ccc(/C=N/NC(=O)c2ccccc2NC(=O)c2cccnc2)cc1 [Compound 164, N-[2-(4-Methyl-benzylidene-hydrazinocarbonyl)-phenyl]-nicotinamide hydrochloride]	55	
3.47	Cc1cccc(/C=N/NC(=O)c2ccccc2NC(=O)c2ccncc2)c1 [Compound 253, N-[2-(3-Methyl-benzylidene-hydrazinocarbonyl)-phenyl]-isonicotinamide hydrochloride]	39	
0.9	CCN(CC)CCN(C)Cc1ccc(C(=O)Nc2ccc(Br)cc2C(=O)N/N=C/c2ccc(C)cc2)cc1 [Compound 285, N-[4-Bromo-2-(4-methyl-benzylidene-hydrazinocarbonyl)-phenyl]-4-{[(2-diethylamino-ethyl)-methyl-amino]-methyl}-benzamide]		inhibition in vivo at 80 mg/kg (SD rats; dose 80 mg/kg): 60.3%
